{
  "source": "patent EP3981864A1",
  "about": "“DETERGENT COMPOSITION” (priority 2020, dated 2022)",
  "key": {"[1]": {"system": "Phaeosphaeria nodorum αDOX (SEQ ID NO: 2), fatty acid alpha-dioxygenase, Q0URU2, N-terminal His-tag variant SEQ ID NO: 251", "assay": "Alpha-dioxygenase activity assay (oxygen consumption, TON)", "format": "biochemical", "settings": "fatty acid 100 µM, enzyme 6 ppm, 50 mM HEPES pH 9.0, 37°C; initial rate of oxygen consumption / enzyme concentration", "text": "(§1) Phaeosphaeria nodorum αDOX (SEQ ID NO: 2) is a fatty acid alpha-dioxygenase that converts fatty acids into the corresponding 2-hydroperoxy fatty acids and is included as an example of the present invention. A codon optimized gene (SEQ ID NO: 250) encoding for an alpha-dioxygenase variant (SEQ ID NO: 251), including an N-terminal amino acid sequence containing a His-tag was designed and synthesized by Genscript. After gene synthesis, the protein was expressed and purified. In brief, the complete synthetic gene sequence was subcloned into a pET30a vector using the NdeI/HindIII cloning sites. For heterologous expression, Escherichia coli BL21 (DE3) cells were transformed with the recombinant plasmid and a single colony was inoculated into LB medium containing kanamycin (50 mg/L). A pre-starter culture was then inoculated into flasks containing Magic Media (Thermo Fisher, Catalog # K6803) supplemented with kanamycin (50 mg/L) and incubated at 16 °C for 72 h. At an OD600nm = 0.5 - 1.0, 5-aminolevulinic acid (final concentration 0.5 mM) was added. Cells were harvested by centrifugation at 5000 rpm and 4°C and the pellet was lysed using a bacterial cell lysis buffer (B-PER - Themo Fisher, Waltham, MA). After centrifugation, the supernatant was collected, and the protein was purified by one-step purification using HisPur™ Ni-NTA Spin Columns (Thermo Scientific, Catalog # 88226) and standard protocols known in the art. The protein was concentrated using a 10 kDa MW cutoff Amicon Ultra centrifugal filter unit (Millipore Sigma, Catalog# UFC901024), followed by desalting using a disposable PD-10 desalting column (GE Healthcare Life Sciences, Catalog# 17085101) and a buffer containing 50 mM Tris-HCl, 500 mM NaCl, and 10% Glycerol at pH 8.0. […]\n(§2) Reactions with alpha-dioxygenases were performed as follows. […] The reaction was incubated for up to 10 minutes at 37°C with 200 rpm agitation and the conversion was monitored using an oxygen sensor. The TON (in s-1) were calculated as the ratio between the initial rate of oxygen consumption (in µM/s) and the concentration of enzyme (in µM). […]"}, "[2]": {"system": "Pseudomonas alcaligenes αDOX (SEQ ID NO: 12), fatty acid alpha-dioxygenase, U3BA19, N-terminal His-tag variant SEQ ID NO: 271 (comparative)", "assay": "Alpha-dioxygenase activity assay (oxygen consumption, TON)", "format": "biochemical", "settings": "fatty acid 100 µM, enzyme 6 ppm, 50 mM HEPES pH 9.0, 37°C; initial rate of oxygen consumption / enzyme concentration", "text": "as §1, with “Pseudomonas alcaligenes αDOX” for “Phaeosphaeria nodorum αDOX”, “NO: 12)” for “NO: 2)”, “as a comparative” for “as an”, “NO: 270)” for “NO: 250)”, “NO: 271),” for “NO: 251),”\nas §2"}},
  "data": [
    {"molecule": "CCCCCCCC/C=C\\CCCCCCCC(=O)O", "note": "[Oleic Acid]", "values": [
      {"measurement": "Oleic Acid, TON", "setting": "[1]", "value": 0.99, "unit": "s⁻¹"},
      {"measurement": "Oleic Acid, TON", "setting": "[2]", "value": 0.00, "unit": "s⁻¹"}
    ]},
    {"molecule": "CCCCCCCCCCCCCCCC(=O)O", "note": "[Palmitic Acid]", "values": [
      {"measurement": "Palmitic Acid, TON", "setting": "[1]", "value": 20.63, "unit": "s⁻¹"},
      {"measurement": "Palmitic Acid, TON", "setting": "[2]", "value": 0.36, "unit": "s⁻¹"}
    ]},
    {"molecule": "CCCCCCCCCCCCCCCCCC(=O)O", "note": "[Stearic Acid]", "values": [
      {"measurement": "Stearic Acid, TON", "setting": "[1]", "value": 8.80, "unit": "s⁻¹"},
      {"measurement": "Stearic Acid, TON", "setting": "[2]", "value": 0.21, "unit": "s⁻¹"}
    ]}
  ]
}
